# Experimental data reported in publication PMC6804253, “Predicting and Experimentally Validating Hot-Spot Residues at Protein–Protein Interfaces” (ACS Chemical Biology, 2019).
# Read-outs that look alike come from different tables or passages of the source.
# How the values were obtained:
# [1] = tested on: PPIs of the SKEMPI data set (by PDBID); conditions: ref SKEMPI, cited from earlier work; for sk_ddG_kJ: SKEMPI experimental ΔΔG of binding, complex by PDBID; for sk_ddG_kJ / sk_ddG_kJ (SKEMPI experimental ΔΔG, mutation to alanine) / sk_ddG_kJ (SKEMPI experimental ΔΔG): single mutation to alanine; for sk_ddG_kJ (SKEMPI experimental ΔΔG, mutation to alanine): PPI given by PDBID, r_group DERKH; for sk_ddG_kJ (SKEMPI experimental ΔΔG of binding, mutation to alanine): single mutation to alanine in the complex of the given PDBID
# [2] = tested on: PPIs of the SKEMPI data set (by PDBID); experiment: SKEMPI experimental ΔΔG, single mutations to alanine; format: binding; conditions: for sk_class: class of the SKEMPI experimental ΔΔG
# [3] = class by ΔΔG threshold 4.184 kJ/mol, ref SKEMPI
# [4] = complex given by PDBID, mutation by mut_pdb
# [5] = Positive / Neutral / Negative by ΔΔG threshold 4.184 kJ/mol, ref SKEMPI
substance,measurement,setting,value
1A4Y EB108A,sk_ddG_kJ,[1],-1.34 kJ
same,sk_class,[2]; ref SKEMPI,Neutral (neutral (little effect) 4.184 kJ/mol < ΔΔG > −4.184 kJ/mol)
1A4Y HB8A,"sk_ddG_kJ (SKEMPI experimental ΔΔG, mutation to alanine)",[1]; sheet sortedByGroup,3.77 kJ
same,sk_class (class of the SKEMPI experimental ΔΔG),[2]; [3],Neutral (neutral (little effect) 4.184 kJ/mol < ΔΔG > −4.184 kJ/mol)
1A4Y HB13A,"sk_ddG_kJ (SKEMPI experimental ΔΔG, mutation to alanine)",[1]; sheet sortedByGroup,-1.42 kJ
same,sk_class (class of the SKEMPI experimental ΔΔG),[2]; [3],Neutral (neutral (little effect) 4.184 kJ/mol < ΔΔG > −4.184 kJ/mol)
1A4Y HB84A,sk_ddG_kJ,[1],0.71 kJ
same,sk_class,[2]; ref SKEMPI,Neutral (neutral (little effect) 4.184 kJ/mol < ΔΔG > −4.184 kJ/mol)
1A4Y NB68A,sk_ddG_kJ (SKEMPI experimental ΔΔG),"[1]; complex given by PDBID, residue group SQNT",0.50 kJ
same,sk_class,[2],Neutral (neutral (little effect) 4.184 kJ/mol < ΔΔG > −4.184 kJ/mol)
1A4Y QB12A,sk_ddG_kJ (SKEMPI experimental ΔΔG),[1]; [4],1.26 kJ
same,sk_class,[2],Neutral (neutral (little effect) 4.184 kJ/mol < ΔΔG > −4.184 kJ/mol)
1A4Y RB5A,"sk_ddG_kJ (SKEMPI experimental ΔΔG, mutation to alanine)",[1]; sheet sortedByGroup,9.67 kJ
same,sk_class (class of the SKEMPI experimental ΔΔG),[2]; [3],Positive (positive (a hot residue) ΔΔG ≥ 4.184 kJ/mol)
1A4Y RB31A,"sk_ddG_kJ (SKEMPI experimental ΔΔG, mutation to alanine)",[1]; sheet sortedByGroup,1.05 kJ
same,sk_class (class of the SKEMPI experimental ΔΔG),[2]; [3],Neutral (neutral (little effect) 4.184 kJ/mol < ΔΔG > −4.184 kJ/mol)
1A4Y RB32A,sk_ddG_kJ,[1],3.77 kJ
same,sk_class,[2]; ref SKEMPI,Neutral (neutral (little effect) 4.184 kJ/mol < ΔΔG > −4.184 kJ/mol)
1A4Y RB33A,sk_ddG_kJ,[1],1.38 kJ
same,sk_class,[2]; ref SKEMPI,Neutral (neutral (little effect) 4.184 kJ/mol < ΔΔG > −4.184 kJ/mol)
1A4Y RB66A,sk_ddG_kJ,[1],0.84 kJ
same,sk_class,[2]; ref SKEMPI,Neutral (neutral (little effect) 4.184 kJ/mol < ΔΔG > −4.184 kJ/mol)
1A4Y RB70A,sk_ddG_kJ,[1],-1.05 kJ
same,sk_class,[2]; ref SKEMPI,Neutral (neutral (little effect) 4.184 kJ/mol < ΔΔG > −4.184 kJ/mol)
1A4Y WB89A,sk_ddG_kJ (SKEMPI experimental ΔΔG),"[1]; sheet sortedByGroup, r_group FAMILYVW",0.96 kJ
same,sk_class,[2],Neutral (neutral (little effect) 4.184 kJ/mol < ΔΔG > −4.184 kJ/mol)
1A22 CA182A,sk_ddG_kJ (SKEMPI experimental ΔΔG),[1]; [4],4.23 kJ
same,sk_class,[2],Positive (positive (a hot residue) ΔΔG ≥ 4.184 kJ/mol)
1A22 DA171A,"sk_ddG_kJ (SKEMPI experimental ΔΔG, mutation to alanine)",[1]; sheet sortedByGroup,3.35 kJ
same,sk_class (class of the SKEMPI experimental ΔΔG),[2]; [3],Neutral (neutral (little effect) 4.184 kJ/mol < ΔΔG > −4.184 kJ/mol)
1A22 EA66A,"sk_ddG_kJ (SKEMPI experimental ΔΔG, mutation to alanine)",[1]; sheet sortedByGroup,1.80 kJ
same,sk_class (class of the SKEMPI experimental ΔΔG),[2]; [3],Neutral (neutral (little effect) 4.184 kJ/mol < ΔΔG > −4.184 kJ/mol)
1A22 EA174A,"sk_ddG_kJ (SKEMPI experimental ΔΔG, mutation to alanine)",[1]; sheet sortedByGroup,-3.77 kJ
same,sk_class (class of the SKEMPI experimental ΔΔG),[2]; [3],Neutral (neutral (little effect) 4.184 kJ/mol < ΔΔG > −4.184 kJ/mol)
1A22 EA186A,"sk_ddG_kJ (SKEMPI experimental ΔΔG, mutation to alanine)",[1]; sheet sortedByGroup,0.00 kJ
same,sk_class (class of the SKEMPI experimental ΔΔG),[2]; [3],Neutral (neutral (little effect) 4.184 kJ/mol < ΔΔG > −4.184 kJ/mol)
1A22 FA10A,"sk_ddG_kJ (SKEMPI experimental ΔΔG of binding, mutation to alanine)",[1],4.35 kJ
same,sk_class (class of the SKEMPI experimental ΔΔG),[2]; [5],Positive (positive (a hot residue) ΔΔG ≥ 4.184 kJ/mol)
1A22 FA25A,"sk_ddG_kJ (SKEMPI experimental ΔΔG of binding, mutation to alanine)",[1],-1.72 kJ
same,sk_class (class of the SKEMPI experimental ΔΔG),[2]; [5],Neutral (neutral (little effect) 4.184 kJ/mol < ΔΔG > −4.184 kJ/mol)
1A22 FA54A,"sk_ddG_kJ (SKEMPI experimental ΔΔG of binding, mutation to alanine)",[1],3.64 kJ
same,sk_class (class of the SKEMPI experimental ΔΔG),[2]; [5],Neutral (neutral (little effect) 4.184 kJ/mol < ΔΔG > −4.184 kJ/mol)
1A22 FA176A,"sk_ddG_kJ (SKEMPI experimental ΔΔG of binding, mutation to alanine)",[1],7.95 kJ
same,sk_class (class of the SKEMPI experimental ΔΔG),[2]; [5],Positive (positive (a hot residue) ΔΔG ≥ 4.184 kJ/mol)
1A22 FA191A,"sk_ddG_kJ (SKEMPI experimental ΔΔG of binding, mutation to alanine)",[1],0.79 kJ
same,sk_class (class of the SKEMPI experimental ΔΔG),[2]; [5],Neutral (neutral (little effect) 4.184 kJ/mol < ΔΔG > −4.184 kJ/mol)
1A22 HA21A,"sk_ddG_kJ (SKEMPI experimental ΔΔG, mutation to alanine)",[1]; sheet sortedByGroup,0.84 kJ
same,sk_class (class of the SKEMPI experimental ΔΔG),[2]; [3],Neutral (neutral (little effect) 4.184 kJ/mol < ΔΔG > −4.184 kJ/mol)
1A22 IA58A,"sk_ddG_kJ (SKEMPI experimental ΔΔG of binding, mutation to alanine)",[1],6.86 kJ
same,sk_class (class of the SKEMPI experimental ΔΔG),[2]; [5],Positive (positive (a hot residue) ΔΔG ≥ 4.184 kJ/mol)
